This is an account of results in patent US5872107A, “Treatment of urogenital cancer with boron neutron capture therapy” (Emory University, priority 1997, dated 1999).

The conditions of data set [1]: typical nucleoside analogues; cited from earlier work.
Data set [2] is described as follows: Toxicity study: weight change and survival of normal Swiss mice. It counts as in vivo, Swiss female mice. As to conditions: 30 mg/kg/day i.p. Here is the method:
A toxicity study was conducted on 6-week-old Swiss female mice treated with CDU and CFAU at 30 mg/kg/day. The compounds were prepared in sterile DMSO and injected intraperitoneally (0.1 mL). DMSO and water were used as controls, with the same injection volume as that used for the CDU and CFAU solutions. The dosing schedule used was once a day for 6 days, and the mice were weighed biweekly for 28 days. Results shown in Table 3 somewhat correlate with the cytotoxicity assays in vitro.

For the molecule `[N-]=[N+]=N[C@H]1C[C@H](n2ccc(=O)[nH]c2=O)O[C@@H]1CO` [AZddU, 3'-azido-2',3'-dideoxyuridine], the “reabsorption by the renal tubule (in words)” value in data set [1] is given as “not reabsorbed appreciably by the renal tubule”.
As for “5-o-carboranyl-1-(2-deoxy-2-fluoro-β-D-arabinofuranosyl)uracil [CFAU]”, the “weight loss after 1 week (in words)” value in data set [2] (CFAU and CDU compared) is on record as “comparable weight loss after 1 week”. Further, the “relative toxicity as monitored by survival outcome (in words)” value in data set [2] (CFAU versus CDU) is on record as “more toxic than CDU”. Further, in data set [2] (one mouse of five), the “day of death of mouse” value turned out to be 7 days. Also, the “weight recovery at 4 weeks (in words)” value in data set [2] (surviving animals) is “all the surviving animals recovered their weight loss to control untreated levels”. For the same molecule, the “% of weight gained or lost on week 1” value in data set [2] (week 1, once a day for 6 days) is recorded as -6.8%. Also, the “% of weight gained or lost on week 2” value in data set [2] (week 2, once a day for 6 days) is -0.4%. Besides, the “% of weight gained or lost on week 3” value in data set [2] (week 3, once a day for 6 days) is on record as 5.0%. Also, in data set [2] (week 4, once a day for 6 days), the “% of weight gained or lost on week 4” value came out at 9.6% and the “survival at week 4, alive/total” value was 4/5. The “survival at week 4 (%)” value in data set [2] (week 4, once a day for 6 days, 40320 min) is listed as 80%.
Take `Cc1cn([C@H]2C[C@H](N=[N+]=[N-])[C@@H](CO)O2)c(=O)[nH]c1=O` [AZT, 3'-azido-3'-deoxythymidine]: the “reabsorption by the renal tubule (in words)” value in data set [1] is reported as “not reabsorbed appreciably by the renal tubule”.
